These results are taken from ChEMBL document CHEMBL5696441 (Nat Chem Biol, 2011).

For assay [1], the system named is Epidermal growth factor receptor (Homo sapiens), P00533 [L858R]. Put plainly: Inhibition of EGFR L858R mutant (unknown origin) assessed as remaining activity at 1 uM by Kinome scan method relative to control.
The target of assay [2] is Leukocyte tyrosine kinase receptor (Homo sapiens) (UniProt P29376). Put plainly: Inhibition of human LTK assessed as residual activity at 1 uM using polyEY as substrate in presence of 33P-ATP by ProQinase assay relative to control.
The test system of the next assay is PBMC. Put plainly: Anti-inflammatory activity against human derived medium respond PBMC cells assessed as increase in stimulated IL-12p70 cytokine release at 1 uM incubated for 2 hrs in the presence of LPS/SEB/aCD28 by Luminex based sandwich immunoassay. Type of assay: functional, cell-based.
Assay [3] addresses Inhibitor of nuclear factor kappa-B kinase subunit beta (Homo sapiens) (UniProt O14920). The assay is described as follows: Inhibition of human IKKbeta assessed as residual activity at 1 uM using RBER-CHKtide as substrate in presence of 33P-ATP by ProQinase assay relative to control.
Assay [4] addresses Bone morphogenetic protein receptor type-1A (Homo sapiens) (UniProt P36894). The assay is described as follows: Inhibition of human BMPR1A assessed as residual activity at 1 uM using casein as substrate in presence of 33P-ATP by ProQinase assay relative to control.
Assay [5] has as its target Calcium/calmodulin-dependent protein kinase type II subunit beta (Homo sapiens) (UniProt Q13554). Put plainly: Inhibition of CAMK2B (unknown origin) assessed as remaining activity at 1 uM by Kinome scan method relative to control.
Assay [6] concerns the target NUAK family SNF1-like kinase 1 (Homo sapiens) (UniProt O60285). Put plainly: Inhibition of human ARK5 assessed as residual activity at 1 uM using RBER-CHKtide as substrate in presence of 33P-ATP by ProQinase assay relative to control.
Assay [7] has as its target Serine/threonine-protein kinase B-raf (Homo sapiens) (UniProt P15056). Put plainly: Inhibition of BRAF (unknown origin) assessed as remaining activity at 1 uM by Kinome scan method relative to control.
Assay [8] has as its target Tyrosine-protein kinase Fes/Fps (Homo sapiens) (UniProt P07332). Put plainly: Inhibition of FES (unknown origin) assessed as remaining activity at 1 uM by Kinome scan method relative to control.
Assay [9] has as its target Death-associated protein kinase 3 (Homo sapiens) (UniProt O43293). The assay is described as follows: Inhibition of DAPK3 (unknown origin) assessed as remaining activity at 1 uM by Kinome scan method relative to control.
Assay [10] has as its system Hepatocyte growth factor receptor (Homo sapiens), P08581 [Y1230A]. The assay is described as follows: Inhibition of human MET Y1230A mutant assessed as residual activity at 1 uM using poly(Ala,Glu,Lys,Tyr)6:2:5:1 as substrate in presence of 33P-ATP by ProQinase assay relative to control.
In assay [11] the test system is Tyrosine-protein kinase ABL1 (Homo sapiens), P00519 [G250E]. Put plainly: Inhibition of human ABL1 G250E mutant assessed as residual activity at 1 uM using Poly(Ala,Glu,Lys,Tyr)6:2:5:1 as substrate in presence of 33P-ATP by ProQinase assay relative to control.
In assay [12] the target is T1, Serine/threonine-protein kinase D3 (Homo sapiens) (UniProt O94806).
T1 sequence (whole entry): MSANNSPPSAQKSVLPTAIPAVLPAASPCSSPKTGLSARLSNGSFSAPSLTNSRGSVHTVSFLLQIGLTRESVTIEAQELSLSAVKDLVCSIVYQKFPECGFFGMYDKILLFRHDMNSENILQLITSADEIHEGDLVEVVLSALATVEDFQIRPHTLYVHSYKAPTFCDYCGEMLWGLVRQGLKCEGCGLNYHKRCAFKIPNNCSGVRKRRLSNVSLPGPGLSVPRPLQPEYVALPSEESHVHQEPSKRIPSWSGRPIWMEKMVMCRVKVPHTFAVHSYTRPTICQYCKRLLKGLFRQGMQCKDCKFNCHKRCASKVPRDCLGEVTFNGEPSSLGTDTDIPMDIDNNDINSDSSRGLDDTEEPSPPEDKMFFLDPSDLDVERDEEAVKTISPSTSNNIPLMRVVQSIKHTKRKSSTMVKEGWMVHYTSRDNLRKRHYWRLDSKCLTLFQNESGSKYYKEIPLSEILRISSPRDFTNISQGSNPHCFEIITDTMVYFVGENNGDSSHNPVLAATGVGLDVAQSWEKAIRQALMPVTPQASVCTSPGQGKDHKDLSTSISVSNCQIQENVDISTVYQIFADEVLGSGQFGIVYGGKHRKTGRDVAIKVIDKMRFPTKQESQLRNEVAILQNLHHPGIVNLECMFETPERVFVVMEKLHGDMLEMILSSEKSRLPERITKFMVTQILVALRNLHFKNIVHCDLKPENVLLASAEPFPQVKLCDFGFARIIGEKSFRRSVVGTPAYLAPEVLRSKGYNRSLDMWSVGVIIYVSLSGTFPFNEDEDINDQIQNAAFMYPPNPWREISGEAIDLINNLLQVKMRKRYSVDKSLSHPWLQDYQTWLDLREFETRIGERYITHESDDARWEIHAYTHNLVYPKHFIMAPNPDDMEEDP
Put plainly: Inhibition of human PKCnu assessed as residual activity at 1 uM using bio-4xCHKT as substrate in presence of 33P-ATP by ProQinase assay relative to control.

Molecules are shown by their SMILES. Activity calls are given as the source filed them. The rule behind the calls is not given here.

Death-associated protein kinase 3 (Homo sapiens), sequence (O43293 whole entry, looked up): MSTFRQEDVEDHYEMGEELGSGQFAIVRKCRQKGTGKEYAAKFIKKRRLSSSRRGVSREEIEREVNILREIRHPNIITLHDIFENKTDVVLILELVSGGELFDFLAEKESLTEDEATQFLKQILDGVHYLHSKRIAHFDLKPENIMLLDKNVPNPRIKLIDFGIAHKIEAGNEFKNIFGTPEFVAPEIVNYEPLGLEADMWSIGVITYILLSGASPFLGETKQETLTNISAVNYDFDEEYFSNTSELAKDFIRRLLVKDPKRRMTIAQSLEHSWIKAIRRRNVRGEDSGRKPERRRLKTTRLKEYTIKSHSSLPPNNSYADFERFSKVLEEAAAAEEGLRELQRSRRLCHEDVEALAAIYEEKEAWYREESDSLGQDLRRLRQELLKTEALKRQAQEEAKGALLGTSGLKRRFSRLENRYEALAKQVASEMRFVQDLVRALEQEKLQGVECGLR
Calcium/calmodulin-dependent protein kinase type II subunit beta (Homo sapiens), sequence (Q13554 whole entry): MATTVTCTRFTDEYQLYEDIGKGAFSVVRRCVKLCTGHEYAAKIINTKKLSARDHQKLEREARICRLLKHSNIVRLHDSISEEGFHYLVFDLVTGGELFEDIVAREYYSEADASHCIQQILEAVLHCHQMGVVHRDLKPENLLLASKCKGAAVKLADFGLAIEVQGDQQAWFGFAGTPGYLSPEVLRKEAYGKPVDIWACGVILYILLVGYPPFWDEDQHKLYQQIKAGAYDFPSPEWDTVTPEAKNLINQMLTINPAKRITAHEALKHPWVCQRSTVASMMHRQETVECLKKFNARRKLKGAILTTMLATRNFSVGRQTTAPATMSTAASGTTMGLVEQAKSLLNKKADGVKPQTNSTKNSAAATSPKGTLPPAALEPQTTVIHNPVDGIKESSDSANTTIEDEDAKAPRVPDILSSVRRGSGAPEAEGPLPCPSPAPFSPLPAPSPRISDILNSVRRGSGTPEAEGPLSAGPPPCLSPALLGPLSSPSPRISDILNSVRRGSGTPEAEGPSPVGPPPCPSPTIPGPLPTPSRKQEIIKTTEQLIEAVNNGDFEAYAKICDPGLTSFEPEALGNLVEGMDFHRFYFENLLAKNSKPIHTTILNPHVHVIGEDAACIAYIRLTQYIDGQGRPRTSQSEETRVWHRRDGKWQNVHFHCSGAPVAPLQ
Serine/threonine-protein kinase B-raf (Homo sapiens), sequence (P15056 whole entry): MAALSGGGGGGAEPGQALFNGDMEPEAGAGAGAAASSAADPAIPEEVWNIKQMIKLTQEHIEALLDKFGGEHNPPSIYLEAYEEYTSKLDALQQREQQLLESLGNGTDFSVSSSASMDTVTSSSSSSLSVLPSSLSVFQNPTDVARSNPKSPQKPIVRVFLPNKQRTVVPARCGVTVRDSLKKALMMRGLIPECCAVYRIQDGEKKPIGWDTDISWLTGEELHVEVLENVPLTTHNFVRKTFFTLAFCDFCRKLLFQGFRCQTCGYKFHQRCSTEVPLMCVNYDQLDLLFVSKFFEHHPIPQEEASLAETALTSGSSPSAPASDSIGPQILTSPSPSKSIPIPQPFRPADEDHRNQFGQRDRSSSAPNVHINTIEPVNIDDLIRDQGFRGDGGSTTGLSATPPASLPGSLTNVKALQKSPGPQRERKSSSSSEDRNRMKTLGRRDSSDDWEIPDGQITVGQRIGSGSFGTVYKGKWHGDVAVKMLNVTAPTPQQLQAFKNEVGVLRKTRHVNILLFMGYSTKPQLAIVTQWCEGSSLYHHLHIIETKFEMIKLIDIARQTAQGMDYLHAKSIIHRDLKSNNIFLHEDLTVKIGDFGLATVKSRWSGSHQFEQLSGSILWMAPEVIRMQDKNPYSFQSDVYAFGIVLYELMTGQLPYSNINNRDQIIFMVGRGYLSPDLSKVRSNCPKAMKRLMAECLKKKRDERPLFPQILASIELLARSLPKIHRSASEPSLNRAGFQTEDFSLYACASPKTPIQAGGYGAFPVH
Inhibitor of nuclear factor kappa-B kinase subunit beta (Homo sapiens), sequence (O14920 whole entry): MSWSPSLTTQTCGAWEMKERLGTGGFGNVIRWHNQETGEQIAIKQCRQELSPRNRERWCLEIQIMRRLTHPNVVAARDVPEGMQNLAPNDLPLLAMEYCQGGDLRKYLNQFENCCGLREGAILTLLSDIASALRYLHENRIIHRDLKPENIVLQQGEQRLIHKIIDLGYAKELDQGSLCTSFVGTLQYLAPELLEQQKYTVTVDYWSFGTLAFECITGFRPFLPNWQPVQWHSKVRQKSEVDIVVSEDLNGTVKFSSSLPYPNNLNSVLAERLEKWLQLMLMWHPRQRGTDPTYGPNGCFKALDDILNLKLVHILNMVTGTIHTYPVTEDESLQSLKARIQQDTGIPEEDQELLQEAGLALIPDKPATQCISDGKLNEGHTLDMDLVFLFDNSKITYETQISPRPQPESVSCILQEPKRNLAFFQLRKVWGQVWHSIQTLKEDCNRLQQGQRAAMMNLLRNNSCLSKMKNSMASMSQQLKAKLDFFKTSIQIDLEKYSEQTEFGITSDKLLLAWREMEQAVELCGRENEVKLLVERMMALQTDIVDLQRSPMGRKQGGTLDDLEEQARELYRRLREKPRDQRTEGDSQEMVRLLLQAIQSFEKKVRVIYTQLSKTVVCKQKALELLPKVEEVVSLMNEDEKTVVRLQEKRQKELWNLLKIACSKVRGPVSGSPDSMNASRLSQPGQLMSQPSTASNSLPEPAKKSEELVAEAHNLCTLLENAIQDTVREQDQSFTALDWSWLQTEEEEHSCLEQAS
Leukocyte tyrosine kinase receptor (Homo sapiens), sequence (P29376 whole entry): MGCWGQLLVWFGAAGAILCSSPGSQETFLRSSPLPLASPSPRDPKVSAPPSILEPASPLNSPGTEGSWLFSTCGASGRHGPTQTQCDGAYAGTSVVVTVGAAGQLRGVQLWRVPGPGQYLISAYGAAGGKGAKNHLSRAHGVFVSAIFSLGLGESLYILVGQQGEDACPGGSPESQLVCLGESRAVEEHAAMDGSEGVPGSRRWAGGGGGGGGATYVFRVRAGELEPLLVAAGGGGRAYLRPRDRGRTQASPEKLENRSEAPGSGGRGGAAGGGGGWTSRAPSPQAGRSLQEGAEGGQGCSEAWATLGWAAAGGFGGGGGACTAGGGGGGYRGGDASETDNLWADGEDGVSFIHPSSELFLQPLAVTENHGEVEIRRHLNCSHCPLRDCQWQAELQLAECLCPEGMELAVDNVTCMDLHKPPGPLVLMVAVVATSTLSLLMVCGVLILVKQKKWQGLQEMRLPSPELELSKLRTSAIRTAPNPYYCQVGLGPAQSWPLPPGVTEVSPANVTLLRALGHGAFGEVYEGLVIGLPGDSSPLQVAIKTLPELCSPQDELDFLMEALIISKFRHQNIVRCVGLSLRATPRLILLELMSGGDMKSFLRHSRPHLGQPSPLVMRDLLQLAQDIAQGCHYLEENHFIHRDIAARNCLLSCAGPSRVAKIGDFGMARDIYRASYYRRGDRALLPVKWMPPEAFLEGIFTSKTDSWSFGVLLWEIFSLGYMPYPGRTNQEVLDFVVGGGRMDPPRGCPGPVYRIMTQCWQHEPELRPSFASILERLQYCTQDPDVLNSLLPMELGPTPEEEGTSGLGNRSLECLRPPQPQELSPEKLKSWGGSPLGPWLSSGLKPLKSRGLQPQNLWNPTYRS
NUAK family SNF1-like kinase 1 (Homo sapiens), sequence (O60285 whole entry): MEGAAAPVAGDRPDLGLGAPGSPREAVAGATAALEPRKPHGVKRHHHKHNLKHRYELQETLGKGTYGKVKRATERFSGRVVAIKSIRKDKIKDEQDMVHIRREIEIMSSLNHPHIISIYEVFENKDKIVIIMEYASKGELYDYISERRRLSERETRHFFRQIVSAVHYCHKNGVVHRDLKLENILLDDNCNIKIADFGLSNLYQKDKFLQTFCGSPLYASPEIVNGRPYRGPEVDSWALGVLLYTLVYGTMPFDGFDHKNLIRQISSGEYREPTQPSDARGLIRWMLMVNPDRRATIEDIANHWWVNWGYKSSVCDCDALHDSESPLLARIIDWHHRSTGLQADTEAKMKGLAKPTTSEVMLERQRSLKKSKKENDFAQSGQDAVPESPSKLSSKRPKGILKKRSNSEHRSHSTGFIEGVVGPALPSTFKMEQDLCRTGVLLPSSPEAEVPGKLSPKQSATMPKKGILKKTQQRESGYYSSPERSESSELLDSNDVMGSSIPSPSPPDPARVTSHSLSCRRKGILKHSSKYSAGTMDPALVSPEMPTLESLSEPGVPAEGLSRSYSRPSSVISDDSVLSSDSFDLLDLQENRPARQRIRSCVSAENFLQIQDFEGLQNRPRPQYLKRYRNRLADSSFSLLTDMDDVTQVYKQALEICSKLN
Tyrosine-protein kinase Fes/Fps (Homo sapiens), sequence (P07332 whole entry): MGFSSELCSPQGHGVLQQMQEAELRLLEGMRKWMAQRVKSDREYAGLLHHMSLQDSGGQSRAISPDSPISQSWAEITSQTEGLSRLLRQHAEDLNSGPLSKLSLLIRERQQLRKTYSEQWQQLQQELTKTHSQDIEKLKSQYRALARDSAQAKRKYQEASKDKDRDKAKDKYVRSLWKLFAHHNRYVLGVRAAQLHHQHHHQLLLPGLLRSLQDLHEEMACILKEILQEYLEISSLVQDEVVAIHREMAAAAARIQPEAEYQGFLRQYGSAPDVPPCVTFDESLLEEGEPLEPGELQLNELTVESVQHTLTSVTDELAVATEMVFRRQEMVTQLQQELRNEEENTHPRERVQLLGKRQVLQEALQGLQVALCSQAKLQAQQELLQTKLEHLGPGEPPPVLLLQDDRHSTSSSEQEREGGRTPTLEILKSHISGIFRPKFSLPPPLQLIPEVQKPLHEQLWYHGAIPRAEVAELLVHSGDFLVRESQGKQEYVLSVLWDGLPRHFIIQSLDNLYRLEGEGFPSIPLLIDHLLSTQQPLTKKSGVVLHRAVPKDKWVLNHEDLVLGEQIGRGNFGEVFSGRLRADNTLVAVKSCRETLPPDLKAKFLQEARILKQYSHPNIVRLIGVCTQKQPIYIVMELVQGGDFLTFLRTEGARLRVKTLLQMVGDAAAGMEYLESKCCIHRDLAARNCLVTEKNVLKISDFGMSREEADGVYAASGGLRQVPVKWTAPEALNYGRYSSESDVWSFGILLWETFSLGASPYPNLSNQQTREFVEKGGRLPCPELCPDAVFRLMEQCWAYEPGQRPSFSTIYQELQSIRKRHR

As for `O=C1c2ccc(Nc3ccc(F)cc3F)cc2CCc2ccc(OC[C@H](O)CO)cc21` [Skepinone-L], the Activity in [1] turned out to be 93%; in [2], 97%; in [3] it was 81%; in [4], 100%; in [5] it was 100%; in [6], 115%. The Activity is 100% in assay [7]; 100% in [8]; 100% in assay [9]; 91% in assay [10]; 97% in assay [11]; 92% in [12]. Besides, in the assay on PBMC, the result was Active.
